13 compounds from patent publication US20240158370A1, “CK1 alpha AND DUAL CK1 alpha / GSPT1 DEGRADING COMPOUNDS” (Innovo Therapeutics, Inc., priority 2022, published 2024) can be followed below.

Bounds are passed on as bounds.

The target of one assay is T1, CK1α (Homo sapiens, UniProt P48729+Q96SW2).
T1 construct: CSNK1A1-HiBit KI HEK293(LgBit) Cells; host or cells: HEK293(LgBit) knock-in cells
In words: HiBiT degradation assay, CK1α, Procedure A. It counts as cell-based. As to conditions: six hours incubation. The method in brief:
(§1)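 Luminescence from HiBiT lytic detection reports remaining tagged protein after cells sit six hours at 37° C with compound across ten concentrations (10 μM down to 0.005 μM, 0.1% DMSO). A 4-parameter curve fit gives DC50 and Ymin.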
Background: The HiBiT peptide binds its large partner to form an active luciferase.

The target in another assay is GSPT1 (Homo sapiens, UniProt P15170+Q96SW2). Nature of the assay: HiBiT degradation assay, GSPT1, Procedure A. The format is cell-based. Further details: HiBit-GSPT1 KI HEK293(LgBit) Cells; host or cells: HEK293(LgBit) knock-in cells. The note with it: six hours incubation. The method in brief: as §1
Sequence of GSPT1 (P15170 whole entry): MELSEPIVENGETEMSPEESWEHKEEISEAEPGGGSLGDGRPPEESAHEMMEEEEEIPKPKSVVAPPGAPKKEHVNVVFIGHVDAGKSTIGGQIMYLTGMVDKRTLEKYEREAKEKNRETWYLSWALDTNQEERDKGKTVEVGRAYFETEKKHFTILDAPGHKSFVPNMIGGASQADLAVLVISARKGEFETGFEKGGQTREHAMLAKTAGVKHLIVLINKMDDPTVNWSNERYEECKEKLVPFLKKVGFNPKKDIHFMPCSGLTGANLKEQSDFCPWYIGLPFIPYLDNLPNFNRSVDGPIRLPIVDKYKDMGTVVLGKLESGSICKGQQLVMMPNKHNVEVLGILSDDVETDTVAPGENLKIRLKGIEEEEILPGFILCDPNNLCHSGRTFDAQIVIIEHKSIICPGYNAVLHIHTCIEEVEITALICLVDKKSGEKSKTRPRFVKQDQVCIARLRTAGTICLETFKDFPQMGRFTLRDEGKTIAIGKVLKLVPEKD
Sequence of GSPT1 (Q96SW2 whole entry): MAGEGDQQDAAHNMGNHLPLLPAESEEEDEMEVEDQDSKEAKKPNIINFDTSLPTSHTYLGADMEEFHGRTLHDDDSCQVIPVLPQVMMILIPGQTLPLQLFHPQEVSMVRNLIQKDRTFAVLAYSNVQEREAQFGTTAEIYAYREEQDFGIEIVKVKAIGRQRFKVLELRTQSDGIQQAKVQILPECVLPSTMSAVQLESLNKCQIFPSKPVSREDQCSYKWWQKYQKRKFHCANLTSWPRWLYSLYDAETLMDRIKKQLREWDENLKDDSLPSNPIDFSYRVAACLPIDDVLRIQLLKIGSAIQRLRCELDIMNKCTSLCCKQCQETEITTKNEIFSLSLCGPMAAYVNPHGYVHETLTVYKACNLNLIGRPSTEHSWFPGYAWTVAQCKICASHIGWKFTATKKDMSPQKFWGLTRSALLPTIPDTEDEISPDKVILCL
Sequence of GSPT1 (Q16531 whole entry partner): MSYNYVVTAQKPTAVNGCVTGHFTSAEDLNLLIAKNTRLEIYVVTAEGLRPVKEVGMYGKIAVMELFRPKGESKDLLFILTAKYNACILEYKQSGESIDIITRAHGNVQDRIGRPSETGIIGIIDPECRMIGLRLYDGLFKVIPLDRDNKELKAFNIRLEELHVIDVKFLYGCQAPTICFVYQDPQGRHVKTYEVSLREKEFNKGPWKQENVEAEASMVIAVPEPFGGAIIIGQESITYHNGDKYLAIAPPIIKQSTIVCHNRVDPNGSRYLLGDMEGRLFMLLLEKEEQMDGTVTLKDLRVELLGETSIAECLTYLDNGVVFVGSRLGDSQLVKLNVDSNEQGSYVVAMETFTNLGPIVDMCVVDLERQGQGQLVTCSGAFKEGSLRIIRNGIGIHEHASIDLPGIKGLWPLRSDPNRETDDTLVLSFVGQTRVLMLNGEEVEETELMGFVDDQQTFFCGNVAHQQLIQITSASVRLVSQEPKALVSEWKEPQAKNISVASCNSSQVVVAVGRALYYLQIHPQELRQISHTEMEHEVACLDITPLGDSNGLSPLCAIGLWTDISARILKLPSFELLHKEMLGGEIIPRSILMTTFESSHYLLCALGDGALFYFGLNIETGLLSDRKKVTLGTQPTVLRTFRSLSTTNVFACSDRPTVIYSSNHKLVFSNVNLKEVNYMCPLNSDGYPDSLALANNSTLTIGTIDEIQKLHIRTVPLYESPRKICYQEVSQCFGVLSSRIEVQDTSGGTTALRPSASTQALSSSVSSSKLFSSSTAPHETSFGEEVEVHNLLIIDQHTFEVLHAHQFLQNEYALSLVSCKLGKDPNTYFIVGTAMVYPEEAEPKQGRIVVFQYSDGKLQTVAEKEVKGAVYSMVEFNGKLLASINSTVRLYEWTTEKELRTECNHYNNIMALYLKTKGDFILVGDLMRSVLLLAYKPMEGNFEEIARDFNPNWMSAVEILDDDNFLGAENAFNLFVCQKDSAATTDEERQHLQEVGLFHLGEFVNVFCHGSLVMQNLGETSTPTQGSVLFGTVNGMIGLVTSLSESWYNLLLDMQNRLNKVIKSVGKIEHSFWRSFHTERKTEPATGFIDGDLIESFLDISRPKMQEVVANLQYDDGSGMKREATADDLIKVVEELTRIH

T1 sequence (P48729 whole entry): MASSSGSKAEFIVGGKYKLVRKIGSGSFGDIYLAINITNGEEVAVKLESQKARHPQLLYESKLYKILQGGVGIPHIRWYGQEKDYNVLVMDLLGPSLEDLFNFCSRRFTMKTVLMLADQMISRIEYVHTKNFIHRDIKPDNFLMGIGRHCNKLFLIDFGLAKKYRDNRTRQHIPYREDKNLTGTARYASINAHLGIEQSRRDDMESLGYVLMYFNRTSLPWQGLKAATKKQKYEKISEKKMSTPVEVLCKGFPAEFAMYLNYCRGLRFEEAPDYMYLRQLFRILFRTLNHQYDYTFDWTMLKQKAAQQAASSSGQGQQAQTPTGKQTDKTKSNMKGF
T1 sequence (Q96SW2 whole entry): as the sequence (Q96SW2 whole entry) above
T1 sequence (Q16531 whole entry partner): as the sequence (Q16531 whole entry partner) above

Turning to `Cn1ncc(-c2ccc3c(c2)CN(C2CCC(=O)NC2=O)C3=O)c1-c1ccc(NC(=O)c2ccccc2)cc1` (stereo not shown) [Example 100], at CK1α, the “CK1α Ymin” value is “E (E = >25-75% remaining)” and the DC50 (as a rule, the midpoint of the concentration-degradation curve) was ≥ 25 nM. On GSPT1, the DC50 was ≥ 25 nM and the “GSPT1 Ymin” value was “F (F = >75-100% remaining)”.
On to `Cn1ncc(-c2ccc3c(c2)CN(C2CCC(=O)NC2=O)C3=O)c1-c1ccc(-c2ccc(C#N)cc2)cc1` (stereo not shown) [Example 101], for which, at CK1α, the “CK1α Ymin” value is recorded as “E (E = >25-75% remaining)” and the half-maximal degradation concentration (DC50) was < 25 nM. At GSPT1, the half-maximal degradation concentration (DC50) was ≥ 25 nM and the “GSPT1 Ymin” value was “F (F = >75-100% remaining)”.
In the same order, the values of `Cn1ncc(-c2ccc3c(c2)CN(C2CCC(=O)NC2=O)C3=O)c1-c1ccc(C(=O)NCc2ccccc2)c(Cl)c1` (stereo not shown) [Example 102] are “E (E = >25-75% remaining)”, ≥ 25 nM, ≥ 25 nM and “F (F = >75-100% remaining)”.
In the same order, the values of `Cn1ncc(-c2ccc3c(c2)CN(C2CCC(=O)NC2=O)C3=O)c1-c1ccc(-c2cccnc2)cc1` (stereo not shown) [Example 103] are “D (D = >10- 25% remaining)”, < 25 nM, ≥ 25 nM and “F (F = >75-100% remaining)”.
In the same order, the values of `COc1ccc(-c2c(-c3ccc4c(c3)CN(C3CCC(=O)NC3=O)C4=O)cnn2C)cc1F` (stereo not shown) [Example 104] are “C (C = 0-10% remaining)”, < 25 nM, ≥ 25 nM and “F (F = >75-100% remaining)”.
As to `Cn1ncc(-c2ccc3c(c2)CN(C2CCC(=O)NC2=O)C3=O)c1-c1cccc2c1OCC2` (stereo not shown) [Example 105], at CK1α, the “CK1α Ymin” value is recorded as “E (E = >25-75% remaining)” and the half-maximal degradation concentration (DC50) was < 25 nM. For the same compound, at GSPT1, the 50% degradation concentration (DC50) was ≥ 25 nM and the “GSPT1 Ymin” value is listed as “F (F = >75-100% remaining)”.
Regarding `Cc1cccc(-c2c(-c3ccc4c(c3)CN(C3CCC(=O)NC3=O)C4=O)cnn2C)c1F` (stereo not shown) [Example 106], at CK1α, the “CK1α Ymin” value was “E (E = >25-75% remaining)” and the DC50 is < 25 nM. Also, on GSPT1, the DC50 is ≥ 25 nM and the “GSPT1 Ymin” value is “F (F = >75-100% remaining)”.
In the same order, the values of `COc1c(F)cccc1-c1c(-c2ccc3c(c2)CN(C2CCC(=O)NC2=O)C3=O)cnn1C` (stereo not shown) [Example 107] are “E (E = >25-75% remaining)”, < 25 nM, ≥ 25 nM and “F (F = >75-100% remaining)”.
On the same counts, the results for `Cn1ncc(-c2ccc3c(c2)CN(C2CCC(=O)NC2=O)C3=O)c1-c1cccc(F)c1Cl` (stereo not shown) [Example 108] are “E (E = >25-75% remaining)”, < 25 nM, ≥ 25 nM and “F (F = >75-100% remaining)”.
Turning to `Cc1ccc(-c2c(-c3ccc4c(c3)CN(C3CCC(=O)NC3=O)C4=O)cnn2C)c(C#N)c1` (stereo not shown) [Example 109], on CK1α, the “CK1α Ymin” value is given as “E (E = >25-75% remaining)” and the DC50 is < 25 nM. Besides, at GSPT1, the 50% degradation concentration (DC50) is ≥ 25 nM and the “GSPT1 Ymin” value was “F (F = >75-100% remaining)”.
For `Cn1ncc(-c2ccc3c(c2)CN(C2CCC(=O)NC2=O)C3=O)c1-c1ccc(C2(C#N)CC2)cc1` (stereo not shown) [Example 110], on CK1α, the “CK1α Ymin” value was “E (E = >25-75% remaining)” and the DC50 was < 25 nM. On GSPT1, the half-maximal degradation concentration (DC50) is ≥ 25 nM and the “GSPT1 Ymin” value is “F (F = >75-100% remaining)”.
On to `Cn1ncc(-c2ccc3c(c2)CN(C2CCC(=O)NC2=O)C3=O)c1-c1cccc(N2CCCCC2)c1` (stereo not shown) [Example 111], for which, at CK1α, the “CK1α Ymin” value is recorded as “F (F = >75-100% remaining)” and the DC50 was ≥ 25 nM. Further, at GSPT1, the half-maximal degradation concentration (DC50) is ≥ 25 nM and the “GSPT1 Ymin” value is on record as “F (F = >75-100% remaining)”.
With `Cn1ncc(-c2ccc3c(c2)CN(C2CCC(=O)NC2=O)C3=O)c1-c1ccc(COc2ccccc2)cc1` (stereo not shown) [Example 112], on CK1α, the “CK1α Ymin” value was “D (D = >10- 25% remaining)” and the half-maximal degradation concentration (DC50) was < 25 nM. On GSPT1, the half-maximal degradation concentration (DC50) was ≥ 25 nM and the “GSPT1 Ymin” value is recorded as “F (F = >75-100% remaining)”.
